Literature values in patent US20210155895A1, “Pluripotent Stem Cell-Derived 3D Retinal Tissue and Uses Thereof” (LINEAGE CELL THERAPEUTICS, INC., priority 2016, published 2021).

What was measured:
[1] = tested on: PR (photoreceptor) cells
[2] = tested on: histone H3; details: Koriyama et al. 2014
[3] = tested on: PR (photoreceptors); details: zaprinast 100 μM

In the case of `CN(N=O)C(N)=O` [MNU, N-methyl, N-nitrosourea], the “time to PR cell death after application” value [1] is given as at most 7 days and the PR cell death ([1]; involving the caspase pathway) is given as “selective and progressive PR cell death”.

In the case of `CCCC(CCC)C(=O)O` [valproic acid], the “effect on histone H3 acetylation” value [2] is given as “induces histone H3 acetylation”.

For `CCCOc1ccccc1-c1nc2nn[nH]c2c(=O)[nH]1` [zaprinast], the PR degeneration [3] is given as “induces PR degeneration at a level comparable to that observed in the mouse rd1 model” and the “effect on intracellular cGMP” value [3] is given as “raises intracellular cGMP”.
